Tests used:
[1] = tested on: pregnenolone level in NCI-H295R cells; assay: cells; format: cell-based; conditions: Homo sapiens, 72 h; for IC50: read-out: Pregnenolone level in H295R (Elisa) IC50 nM
Method: 2. The purpose of the experimental study was intended to detect the pregnenolone level in the NCI-H295R cells by adopting the Enzyme linked immunosorbent assay (ELISA), so as to evaluate the inhibitory effects of the compounds on the pregnenolone level in the NCI-H295R cells.
The H295R cells were purchased from ATCC (CRL-2128), the cell complete medium contained DMEM: F12+ 10% FBS +0.00625 mg/ml insulin+0.00625 mg/mL transferrin+6.25 ng/mL selenium+1.25 mg/mL BSA+0.00535 mg/mL linoleic acid, and the cells were cultured in a 37°C, 5% CO2 incubator. The cells in the exponential growth phase were collected, and cultured in a cytokine-free medium (phenol red 1640-free +1% PS+10% css FBS+1.25 mg/mL BSA +0.00625 mg/mL insulin+0.00625 mg/mL transferrin+6.25 ng/mL selenium+0.00535 mg/mL linoleic acid) for 3 days. The cells in the exponential growth phase were collected on the third day. The cell suspension was adjusted with a cytokine-free medium to a corresponding concentration and plated at 60000 cells/well, with the volume being 90 µL/well. Subsequently, 10 µL of the compounds at different concentrations was added and the plate was incubated in a CO2 incubator for 3 days. After the incubation was completed, the cell culture supernatant was collected and centrifuged at 2°C-8°C at 800×g for 10 min. The resulting supernatant was collected. Determination was carried out according to the operation instructions for pregnenolone Elisa kit (Antibodies-A73791), and the OD450 signal was read.
2.1 Standard curve plotting. The standard concentration was taken as the abscissa and the OD450 value as the ordinate, the coordinate points of various standards were connected with a smooth line and a curve was fitted according to the four parameter logistic (4-PL) method.
2.2 Sample quantification: The corresponding concentration (CONC) of testosterone/pregnenolone in the sample was calculated using the absorbance value of the sample and the standard curve. According to formula (2), the inhibition rate of the compound at various concentrations was calculated, and S-shaped concentration curves were plotted and the IC50 values (i.e., concentration of the compound at which the inhibition rate was 50%) were calculated using a three parameter non-linear regression model in Graphpad Prim 8.0 software. CONC cpd was the concentration of the treated group, and CONC ctrl was the average concentration value of the solvent control group. Inhibition rate% = 100%-CONCepd /CONCctrl × 100% [formula]

[2] = Pharmacokinetic test in mice; format: in vivo; conditions: mouse, male ICR mice, plasma; for Vd: read-out: Vdss
Method: 4.1. Experimental animals: Male ICR mice, 20-25 g, 6 mice/compound, purchased from Chengdu Dossy Experimental Animals Co., Ltd.
4.2 Experimental design: on the day of the experiment, the ICR mice were randomly grouped according to their body weights. […] Table 5. Administration information
vehicle for intravenous administration: 5% DMA+5% HS-15+90% NS; vehicle for intragastric administration: 0.5% MC
Before and after administration, 0.06 mL of blood was taken from the orbit under isoflurane anesthesia and placed in an EDTAK2 centrifuge tube. The tube was centrifuged at 5000 rpm at 4°C for 10 min, and plasma was collected. […] Before analysis and detection, all samples were stored at -80°C, and the samples were quantitatively analyzed by LC-MS/MS. Table 6. Pharmacokinetic parameters of test compounds in plasma of mice

[3] = tested on: testosterone level in NCI-H295R cells; assay: cells; format: cell-based; conditions: Homo sapiens, 72 h; for IC50: read-out: IC50/nM; for inhibition at 0.1 µM: read-out: Testosterone level in H295R (Elisa) inh.% 100 nM; for inhibition at 1 µM: read-out: Testosterone level in H295R (Elisa) inh.% 1000 nM
Method: 1. The purpose of the experimental study was intended to detect the testosterone level in the NCI-H295R cells by adopting the Enzyme linked immunosorbent assay (ELISA), so as to evaluate the inhibitory effects of the compounds on the testosterone level in the NCI-H295R cells. The H295R cells were purchased from ATCC, the cell complete medium contained DMEM: F12+ 10% FBS +0.00625 mg/ml insulin +0.00625 mg/ml transferrin+6.25 ng/ml selenium +1.25 mg/ml BSA+0.00535 mg/ml linoleic acid, and the cells were cultured in a 37°C, 5% CO2 incubator. The cells in the exponential growth phase were collected, and cultured in a cytokine-free medium (phenol red 1640-free +1% PS+10% css FBS+1.25 mg/ml BSA +0.00625 mg/ml insulin + 0.00625 mg/ml transferrin+6.25 ng/ml selenium+0.00535 mg/ml linoleic acid) for 3 days. The cells in the exponential growth phase were collected on the third day. The cell suspension was adjusted with a cytokine-free medium to a corresponding concentration and plated at 60000 cells/well, with the volume being 90 µL/well. Subsequently, 10 µL of the compounds at different concentrations was added and the plate was incubated in a CO2 incubator for 3 days. After the incubation was completed, according to the operation instructions for testosterone Elisa kit (Beyotime, PT872), 50 µL of the cell culture supernatant was collected from each well and centrifuged at 500 g for 5 min at room temperature and then the resulting supernatant was collected. The samples were added to the corresponding wells at 25 µl/well, and then formulated horseradish peroxidase labeled testosterone was added at 75 µl/well. The mixture was fully mixed for 10 seconds. The reaction wells were sealed with a plate-sealing film (white) and the mixture was incubated at room temperature in the dark for 120 min. The plate was washed 3 times with a volume of 300 µl per well, and then placed onto thick absorbent paper and dried. Chromogenic reagent TMB solution was added at 100 µl/well. The reaction wells were sealed with a plate-sealing film (white) and the mixture was incubated at room temperature in the dark for 15-20 min. Subsequently, a termination solution was added at 50 µl/well, and after the mixture was fully mixed, the absorbance value OD450 was immediately measured. The absorbance readings were processed using Graphpad Prim 8.0 software and S-shaped concentration curves were plotted and the IC50 values were calculated using a four-parameter non-linear regression model. The results were processed according to formula (1), the inhibition rate of the compound at different concentrations was calculated, and the IC50 value of the compound with an inhibition rate of 50% was calculated using Graphpad Prim 8.0 software, wherein RLU compound was the readout of the treated group, and RLU control was the average value of the solvent control group. Inhibition rate% = 100-RLUcompound /RLUcontrol × 100 [formula] Table 1. Inhibitory activity on testosterone level in NCI-H295R cells

[4] = Pharmacokinetic test in beagle dogs; format: in vivo; conditions: dog, male beagle dogs, plasma
Method: Experimental animals: male beagle dogs, about 8-11 kg, 6 beagle dogs/compound, purchased from Beijing Marshall Biotechnology Co., Ltd.
Experimental method: on the day of the experiment, the beagle dogs were randomly grouped according to their body weights. The animals were fasted with water available for 12-14 h one day before the administration, and were fed 4 h after the administration. Administration was performed as per Table 7.
Test compounds: example compounds and control compounds. Table 7. Administration information
Before and after the administration, 1 ml of blood was taken from the jugular veins or limb veins, and placed in an EDTAK2 centrifuge tube. Centrifugation was performed at 5000 rpm at 4°C for 10 min, and plasma was collected. The blood collection time points for both the intravenous administration group and the intragastric administration group were: 0, 5 min, 15 min, 30 min, 1 h, 2 h, 4 h, 6 h, 8 h, 10 h, 12 h, 24 h, 48 h, and 72 h. Before analysis and detection, all samples were stored at -80°C. The samples were analyzed quantitatively by LC-MS/MS. Table 8. Pharmacokinetic parameters of test compounds in plasma of beagle dogs

[5] = Pharmacokinetic test in rats; format: in vivo; conditions: rat, male SD rats, plasma; for Vd: read-out: Vdss
Method: 3.1 Experimental animals: Male SD rats (about 220 g, 6-8 weeks old, 6 rats/compound), purchased from Chengdu Dossy Experimental Animals Co., Ltd.
3.2 Experimental design: On the day of the experiment, the SD rats were randomly grouped by body weight. […] Table 3. Administration information
Before and after the administration, 0.1 ml of blood was taken from the orbit of the animals under isoflurane anesthesia and placed in an EDTAK2 centrifuge tube. The blood was centrifuged at 5000 rpm and 4°C for 10 min to collect plasma. […] Before analysis and detection, all samples were stored at -80°C. Table 4. Pharmacokinetic parameters of test compounds in plasma of rats

[6] = po, intragastric administration (10 mg/kg)
[7] = intravenous administration (2.5 mg/kg)
[8] = po, intragastric administration (3 mg/kg)
[9] = intravenous administration (1 mg/kg)

Compound: [2H]C([2H])([2H])C(=O)N[C@H]1CC[C@H](c2cc3oc(CN4Cc5ccc(C(F)(F)F)cc5C4)cc(=O)c3o2)CC1 [Compound 58]
- IC50 [1]: 160 nM
- AUC(0-t) [2, 6]: 9460 ng·h/mL
- half-life [2, 6]: 2.08 h
- AUC(0-t) [2, 7]: 2960 ng·h/mL
- clearance [2, 7]: 14.2 mL/min/kg
- half-life [2, 7]: 2.77 h
- Vd [2, 7]: 1.34 L/kg
- IC50 [3]: 57 nM
- AUC(0-t) [4, 8]: 24800 ng·h/mL
- half-life [4, 8]: 6.79 h
- AUC(0-t) [4, 9]: 14000 ng·h/mL
- clearance [4, 9]: 1.24 mL/min/kg
- half-life [4, 9]: 10.2 h
- Vd ([4]; intravenous administration (1 mg/kg), read-out: Vdss): 0.87 L/kg

Compound: O=C(N[C@H]1CC[C@H](CCOc2cc(CN3Cc4ccc(C(F)(F)F)cc4C3)ccn2)CC1)[C@@H]1CC1(F)F [Compound 71]
- inhibition at 0.1 µM ([1]; read-out: Pregnenolone level in H295R (Elisa) inh.% 100 nM): 43.9%
- inhibition at 1 µM ([1]; read-out: Pregnenolone level in H295R (Elisa) inh.% 1000 nM): 57.5%
- inhibition at 0.1 µM [3]: 74.9%
- inhibition at 1 µM [3]: 86.9%

Compound: [2H]C([2H])([2H])n1cc(C(=O)N[C@H]2CC[C@H](CCOc3cc(CN4Cc5ccc(C(F)(F)F)cc5C4)ccn3)CC2)cn1 [Compound 63]
- IC50 [1]: 272 nM
- AUC(0-t) [2, 6]: 20800 ng·h/mL
- half-life [2, 6]: 6.62 h
- AUC(0-t) [2, 7]: 5530 ng·h/mL
- clearance [2, 7]: 7.37 mL/min/kg
- half-life [2, 7]: 4.7 h
- Vd [2, 7]: 2.36 L/kg
- IC50 [3]: 92 nM
- inhibition at 0.1 µM [3]: 64.4%
- inhibition at 1 µM [3]: 76.4%

Compound: [2H]C([2H])([2H])C(=O)N[C@H]1CC[C@H](CCOc2cc(CN3Cc4ccc(C(F)(F)F)cc4C3)ccn2)CC1 [Compound 62]
- IC50 [1]: 142 nM
- IC50 [3]: 151 nM
- AUC(0-t) [5, 6]: 41500 ng·h/mL
- half-life [5, 6]: 4.13 h
- AUC(0-t) [5, 7]: 10800 ng·h/mL
- clearance [5, 7]: 3.97 mL/min/kg
- half-life [5, 7]: 3.81 h
- Vd [5, 7]: 1.11 L/kg

Compound: O=C(N[C@H]1CC[C@H](CCOc2cc(CN3Cc4ccc(C(F)(F)F)cc4C3)ccn2)CC1)C1CC1 [Compound 65]
- IC50 [1]: 319 nM
- IC50 [3]: 168 nM
- inhibition at 0.1 µM [3]: 71%
- inhibition at 1 µM [3]: 75%
- AUC(0-t) [5, 6]: 7550 ng·h/mL
- half-life [5, 6]: 6.58 h
- AUC(0-t) [5, 7]: 2150 ng·h/mL
- clearance [5, 7]: 17.4 mL/min/kg
- half-life [5, 7]: 8.25 h
- Vd [5, 7]: 8.8 L/kg
